Measured values taken from article PMC9065678, “BI 1015550 is a PDE4B Inhibitor and a Clinical Drug Candidate for the Oral Treatment of Idiopathic Pulmonary Fibrosis” (Frontiers in Pharmacology, 2022).
Marks after values point to notes of the source that are not given here.

Assays:
PDE4B = target: T1, PDE4B (Homo sapiens, UniProt Q07343); assay: Recombinant PDE activity, scintillation proximity assay: PDE4B; type: biochemical
T1 construct: PDE4B NG_029038: AA 152–484; made in house; host or cells: SF9 insect cells (baculovirus, Bac-To-Bac, pFastbac)
T1 sequence (Q07343 324-656): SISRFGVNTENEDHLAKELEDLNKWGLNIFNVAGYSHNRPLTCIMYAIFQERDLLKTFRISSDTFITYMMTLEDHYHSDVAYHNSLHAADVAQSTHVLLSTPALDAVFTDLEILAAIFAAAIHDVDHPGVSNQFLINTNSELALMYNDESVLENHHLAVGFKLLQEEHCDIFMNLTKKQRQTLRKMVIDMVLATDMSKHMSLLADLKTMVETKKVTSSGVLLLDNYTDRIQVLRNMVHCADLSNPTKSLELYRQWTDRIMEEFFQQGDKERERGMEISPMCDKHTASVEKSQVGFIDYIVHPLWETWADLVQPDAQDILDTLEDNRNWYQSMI
Experimental: For the preparation of human recombinant PDEs of interest, the Bac-To-Bac baculoviral expression system from Invitrogen (Carlsbad, CA, United States) was used according to the instruction manual. […] The plasmids were transformed into DH10Bac bacteria, SF9 insect cells were transfected with the bacmid DNA, and the resulting baculoviruses were stored and used for further rounds of infections. For protein production, SF9 cells were infected until a cytopathic effect was visible (after about 72 h), the SF9 cells were harvested and broken up by 3 freeze/thaw cycles, and by shearing 10 times through a 0.1 mm cannula using a syringe. […] The Phosphodiesterase Scintillation Proximity Assays (TRKQ7090 for [^3H]cAMP, GE Healthcare Europe GmbH, Chalfont St Giles, United Kingdom, and TRKQ7100 for [^3H]cGMP, Perkin Elmer, Waltham, MA, United States) were performed essentially according to the instruction manual. […] Assay solutions containing recombinant baculoviral-expressed PDE (to give an activity of 5.000–20.000 cpm corresponding to 5–20% of total activity added), 50 mmol/L Tris/HCl pH 7.5, 8.3 mmol/L MgCl2, 1.7 mmol/L EGTA, and 10 µL radiolabeled substrate (0.05 µCi in H2O) were incubated for 1 h at 30°C (final volume 100 μL).

[1] = system: LPS-induced lung neutrophil influx; assay: LPS-induced lung neutrophil influx in male Wistar rats; type: in vivo, rat; conditions: oral, data not shown
Description: Compared with other animal species used to study emesis induction by PDE4 inhibitors, like ferrets, dogs, minipigs, or monkeys, Suncus murinus allows the testing of a sufficient number of animals to provide a high statistical power. […] Male Suncus murinus (weight 50–55 g) from Boehringer Ingelheim (Biberach an der Riss, Germany) or male Wistar rats (200–250 g, Charles River), eight animals per group, were used. […] For this purpose, animals in the positive control and treatment groups were put into a circular Plexiglas chamber with 16 pie-like compartments for one animal each, and were consecutively exposed to nebulized LPS for 30 min. The LPS solution used for nebulization contained 1 mg/mL LPS in phosphate-buffered saline (PBS). Nebulization was performed with the commercially available PARI Master® nebulizer with a PARI Master® LL adapter (Pari GmbH, Starnberg, Germany). 4 h after LPS exposure, the animals were anesthetized and euthanized by cervical dislocation. After sacrifice, the trachea was cannulated and bronchoalveolar lavage was performed by instilling and re-aspirating two-times 1 mL (Suncus murinus) or 5 mL (rat) lavage buffer (PBS +2% bovine serum albumin). BALF volumes were recorded manually. Determination of neutrophil numbers in BALF was performed using a blood hemacytometer (Sysmex XT-1800i, Kobe, Japan).

[2] = system: bleomycin-challenged mice; assay: Therapeutic bleomycin mouse model of lung fibrosis; type: in vivo
Experimental: Adult, test-naïve, male C57BL6/6J mice, aged 10–12 weeks from Charles River were used (weight 25–27 g). The model was performed essentially as described by [Ackermann et al. (2017)]. Briefly, bleomycin 1 mg/kg (Calbiochem, Darmstadt, Germany) was administered intratracheally in an application volume of 2 mL/kg body weight. Animals were weighed daily. […] BI 1015550 (at final doses of 2.5 and 12.5 mg/kg) was applied by oral gavage using a dose volume of 10 mL/kg twice daily (b.i.d.) from day 8 until day 13. On day 12, animals were anesthetized using 3–4% isoflurane, and lung density was assessed by micro-computed tomography (µCT) analysis with a Quantum FX µCT system (Perkin Elmer) with cardiac gating (without respiratory gating). Images were analyzed using MicroView 2.0 software (GE Healthcare). The Hounsfield unit (HU) corresponding to the peak of the HU-histogram for the segmented pixels was used as a measure of fibrosis. After µCT analysis, animals were allowed to awaken from anesthesia. On day 14, lung function [pressure-volume loops, FVC, and static lung compliance (Cstat)] was measured with a FlexiVent system (SCIREQ, Montreal, PQ, Canada). After the lung function measurement, animals were sacrificed by an overdose of Narcorene and lungs were lavaged with two-times 0.8 mL of PBS. BALF was used to determine differential cell counts (Sysmex XT-1800iVet) and the number of monocytes. Left lung lobes were fixed with 4% paraformaldehyde and inflated under 20 cm water pressure for 20 min. Samples were embedded in paraffin, sectioned (3 μm thickness), and stained for hematoxylin and eosin (HE) and Masson’s trichrome to assess general morphology and fibrotic change following standard histopathology operating protocols. Images were taken with an AxioCam MRm microscope camera using AxioVision software (Carl Zeiss Microscopy, LLC, White Plains, NY, United States). Lung sections stained with Masson’s trichrome were assessed for severity of pulmonary fibrosis using the Ashcroft score. The protocol used is therapeutic, i.e. treatment commenced at a time where lung fibrosis should have developed, in line with the recommendations of the American Thoracic Society panel on IPF models ([Jenkins et al., 2017]).

[3] = mice, 2.5 mg/kg b.i.d. oral day 8 to day 13, measured day 14
[4] = mice, 12.5 mg/kg b.i.d. oral day 8 to day 13, measured day 14, 12.5 mg/kg

Selectivity for inhibition of PDE4B versus PDE4D (PDE4B): roughly 10 fold | IC50 (PDE4B; human recombinant active site fragment, substrate [3H]cAMP, means from n independent experiments, read-out: IC50 PDE4B2): 10 nM | Effect on weight gain ([2]; bleomycin mice, data not shown): no significant effect
SMILES: [O-][S+]1CCc2nc(N3CCC(c4ncc(Cl)cn4)CC3)nc(NC3(CO)CCC3)c21 (centres unmarked) [BI 1015550]
ED50 LPS-induced lung neutrophil influx [1]: 0.1 mg/kg | Effect on BALF protein and monocytes, airway compliance ([2]; bleomycin mice): no effects | Fibrosis < score, % improvement compared to bleomycin control ([2]; mice, 2.5 mg/kg b.i.d. oral day 8 to day 13): 2% | Cstat (mL/cm H2O), % improvement compared to bleomycin control [2, 3]: 21% | FVC (mL), % improvement compared to bleomycin control [2, 3]: 18% | Ratio tissue density, % improvement compared to bleomycin control ([2]; mice, 2.5 mg/kg b.i.d. oral day 8 to day 13, µCT): 4% | Fibrosis < score, % improvement compared to bleomycin control ([2]; mice, 12.5 mg/kg b.i.d. oral day 8 to day 13): 11% | Cstat (mL/cm H2O), % improvement compared to bleomycin control [2, 4]: 40* % | FVC (mL), % improvement compared to bleomycin control [2, 4]: 41% | Ratio tissue density, % improvement compared to bleomycin control ([2]; mice, 12.5 mg/kg b.i.d. oral day 8 to day 13, µCT): 39% | Improvement in PV loops ([2]; mice, higher dose (12.5 mg/kg b.i.d.), p < 0.05): 40%
